Legend:
Lyp1 = target: T1, Lyp1 (Homo sapiens, UniProt Q9Y2R2); assay: In vitro phosphatase assay with 33P labelled Raytide peptide and Lyp immunoprecipitates; type: biochemical; conditions: data not shown
T1 construct: made in house; host or cells: COS cells (transient transfection, pcDNA3); anti-T7 immunoprecipitate
T1 sequence (Q9Y2R2 1-807): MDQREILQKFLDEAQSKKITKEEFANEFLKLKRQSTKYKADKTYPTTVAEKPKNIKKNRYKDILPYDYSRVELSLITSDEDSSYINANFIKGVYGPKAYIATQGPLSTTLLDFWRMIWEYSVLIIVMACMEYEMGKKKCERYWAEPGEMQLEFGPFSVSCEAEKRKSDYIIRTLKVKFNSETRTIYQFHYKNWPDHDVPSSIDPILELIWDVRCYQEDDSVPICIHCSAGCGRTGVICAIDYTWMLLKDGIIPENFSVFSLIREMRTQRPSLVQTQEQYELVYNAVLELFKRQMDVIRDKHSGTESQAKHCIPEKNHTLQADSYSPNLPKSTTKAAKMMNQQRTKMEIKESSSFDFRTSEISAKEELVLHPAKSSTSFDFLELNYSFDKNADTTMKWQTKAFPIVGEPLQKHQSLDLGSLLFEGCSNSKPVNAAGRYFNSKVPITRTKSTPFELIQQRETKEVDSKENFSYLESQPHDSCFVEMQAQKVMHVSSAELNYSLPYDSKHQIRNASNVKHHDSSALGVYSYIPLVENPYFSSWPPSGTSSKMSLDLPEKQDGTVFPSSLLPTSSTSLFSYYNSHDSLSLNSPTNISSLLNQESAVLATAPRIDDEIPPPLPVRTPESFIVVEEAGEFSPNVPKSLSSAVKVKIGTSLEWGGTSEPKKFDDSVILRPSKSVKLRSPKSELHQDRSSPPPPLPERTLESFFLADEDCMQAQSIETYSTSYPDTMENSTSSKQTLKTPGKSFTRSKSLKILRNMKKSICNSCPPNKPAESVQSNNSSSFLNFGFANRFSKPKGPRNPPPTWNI
Experimental: Anti-Lyp immunoprecipitates from untransfected and pcDNA3-Lyp1 transfected cells were prepared in pervanadate free lysis buffer and incubated with ^33P labelled substrate Raytide. At the indicated time points reactions were stopped by the addition of charcoal and the free ^33P released from the peptide and now present in the supernatant measured by liquid scintillation counting.
Raytide peptide was ^33P labelled on tyrosine residues in vitro using the tyrosine kinase p60src and purified on phosphocellulose paper. Release of ^33P over time was measured in the phosphatase assay and compared to controls from untransfected cells.
Specifically, the synthetic peptide Raytide was phosphorylated according to the method described by Guan et al., (1994)(54), on tyrosine by p60src (Oncogene Science) as follows: 10 μg Raytide in 50 mM Hepes pH 7.5, 10 mM MgCl2, 0.067% mercaptoethanol, 0.05 mM ATP was incubated with 300 μCiγ^33P ATP per ml and 2 μg p60src in a final volume of 30 μl. The reaction was allowed to proceed for 30 minutes at 30° C. and was stopped by the addition of […] 10% phosphoric acid.
The sample was spotted onto two 1×1 cm sheets of P81 phophocellulose paper and extensively washed with 0.5% phosphoric acid. […]
The phosphorylated substrate was used in the phosphatase assay as described by Stueli et al (1989)(54). […] After centrifugation the free ^33P in the supernatant was measured.

Cbl = conditions: Jurkat cells, pervanadate treatment; cited from earlier work

- inhibition of Lyp tyrosine phosphatase activity (Lyp1): completely inhibited
Substance: pervanadate [reference compound]
- phosphorylation of Cbl (Cbl): marked increase

From patent US20040006777A1, “Human lymphoid protein tyrosine phosphatases” (HSC Research and Development Limited Partnership, priority 1998, published 2004)
